Assay results reported in ChEMBL document CHEMBL4828763, “Discovery of Potent and Selective CDK9 Degraders for Targeting Transcription Regulation in Triple-Negative Breast Cancer” (J Med Chem, 2021).

System: MDA-MB-468
Assay: Growth inhibition of human MDA-MB-468 cells assessed as cell viability measured after 4 days by WST8 assay
Format: functional, cell-based
Conditions: MDA-MB-468, 96 h

SMILES | IC50 [µM]
CC(C)c1cnn2c(NCc3ccc(CCCCCCNC(=O)COc4cccc5c4C(=O)N(C4CCC(=O)NC4=O)C5=O)cc3)cc(NCCCCCCN)nc12 (centres undefined) | 10.3
CC(C)c1cnn2c(NCc3ccc(NC(=O)CCCCCCNc4cccc5c4C(=O)N(C4CCC(=O)NC4=O)C5=O)cc3N(C)C)nc(OC3CCN(C)CC3)nc12 (centres undefined) | 4.89
CC(C)c1cnn2c(NCc3cc(CCCCCCNC(=O)COc4cccc5c4C(=O)N(C4CCC(=O)NC4=O)C5=O)ccc3N(C)C)nc(OC3CCN(C)CC3)nc12 (centres undefined) | 17.9
CC(C)c1cnn2c(NCc3ccccc3)nc(OC3CCN(CCOCCNC(=O)COc4cccc5c4C(=O)N(C4CCC(=O)NC4=O)C5=O)CC3)nc12 (centres undefined) | > 20
CC(C)c1cnn2c(NCc3ccc(CCCOCCOCCOc4cccc5c4C(=O)N(C4CCC(=O)NC4=O)C5=O)cc3)nc(OC3CCN(C)CC3)nc12 (centres undefined) | 3.37
CC(C)c1cnn2c(NCc3ccc(NC(=O)N4CCN(CCCCCc5cccc6c5CN(C5CCC(=O)NC5=O)C6=O)CC4)cc3)nc(OC3CCN(C)CC3)nc12 (centres undefined) | 0.098
CC(C)c1cnn2c(NCc3ccccc3)nc(OC3CCN(C)CC3)nc12 | 3.07
CC(C)c1cnn2c(NCc3ccc(NC(=O)CCCCCCNC(=O)COc4cccc5c4C(=O)N(C4CCC(=O)NC4=O)C5=O)cc3)nc(OC3CCN(C)CC3)nc12 (centres undefined) | 1.45
CC(C)c1cnn2c(NCc3cccc(NC(=O)CCCCCCNC(=O)COc4cccc5c4C(=O)N(C4CCC(=O)NC4=O)C5=O)c3)nc(OC3CCN(C)CC3)nc12 (centres undefined) | > 20
CC(C)c1cnn2c(NCc3ccc(NC(=O)CCCCCOc4cccc5c4C(=O)N(C4CCC(=O)NC4=O)C5=O)cc3)nc(OC3CCN(C)CC3)nc12 (centres undefined) | 0.56
CC(C)c1cnn2c(NCc3ccc(NC(=O)CCCCCCNc4cccc5c4C(=O)N(C4CCC(=O)NC4=O)C5=O)cc3)nc(OC3CCN(C)CC3)nc12 (centres undefined) | 0.66
CC(C)c1cnn2c(NCc3ccccc3N(C)C)nc(OC3CCN(C)CC3)nc12 | 8.78
CC(C)c1cnn2c(NCc3ccccc3-n3ccnc3)nc(OC3CCN(C)CC3)nc12 | 3.92
CC(C)c1cnn2c(NCc3ccccc3)nc(OC3CCN(CCOCCOCCNC(=O)COc4cccc5c4C(=O)N(C4CCC(=O)NC4=O)C5=O)CC3)nc12 (centres undefined) | > 20
CC(C)c1cnn2c(NCc3cc(NC(=O)CCCCCCNC(=O)COc4cccc5c4C(=O)N(C4CCC(=O)NC4=O)C5=O)ccc3N(C)C)nc(OC3CCN(C)CC3)nc12 (centres undefined) | > 20
CC(C)c1cnn2c(NCc3ccccc3N(C)C)nc(OC3CCN(CCOCCNC(=O)COc4cccc5c4C(=O)N(C4CCC(=O)NC4=O)C5=O)CC3)nc12 (centres undefined) | > 20
CC(C)c1cnn2c(NCc3ccc(NC(=O)CCCN4CCN(CCCCCc5cccc6c5CN(C5CCC(=O)NC5=O)C6=O)CC4)cc3)nc(OC3CCN(C)CC3)nc12 (centres undefined) | 0.34
CC(C)c1cnn2c(NCc3ccc(CCCCCCCOc4cccc5c4C(=O)N(C4CCC(=O)NC4=O)C5=O)cc3)nc(OC3CCN(C)CC3)nc12 (centres undefined) | 3.22

System: MDA-MB-231
Assay: Growth inhibition of human MDA-MB-231 cells assessed as cell viability measured after 4 days by WST8 assay
Format: functional, cell-based
Conditions: MDA-MB-231, 96 h

SMILES | IC50 [µM]
CC(C)c1cnn2c(NCc3ccc(CCCCCCNC(=O)COc4cccc5c4C(=O)N(C4CCC(=O)NC4=O)C5=O)cc3)cc(NCCCCCCN)nc12 (centres undefined) | 16.6
CC(C)c1cnn2c(NCc3ccc(NC(=O)CCCCCCNc4cccc5c4C(=O)N(C4CCC(=O)NC4=O)C5=O)cc3N(C)C)nc(OC3CCN(C)CC3)nc12 (centres undefined) | 4.26
CC(C)c1cnn2c(NCc3cc(CCCCCCNC(=O)COc4cccc5c4C(=O)N(C4CCC(=O)NC4=O)C5=O)ccc3N(C)C)nc(OC3CCN(C)CC3)nc12 (centres undefined) | 12.6
CC(C)c1cnn2c(NCc3ccccc3)nc(OC3CCN(CCOCCNC(=O)COc4cccc5c4C(=O)N(C4CCC(=O)NC4=O)C5=O)CC3)nc12 (centres undefined) | > 20
CC(C)c1cnn2c(NCc3ccc(CCCOCCOCCOc4cccc5c4C(=O)N(C4CCC(=O)NC4=O)C5=O)cc3)nc(OC3CCN(C)CC3)nc12 (centres undefined) | 4.45
CC(C)c1cnn2c(NCc3ccc(NC(=O)N4CCN(CCCCCc5cccc6c5CN(C5CCC(=O)NC5=O)C6=O)CC4)cc3)nc(OC3CCN(C)CC3)nc12 (centres undefined) | 0.065
CC(C)c1cnn2c(NCc3ccccc3)nc(OC3CCN(C)CC3)nc12 | 3.01
CC(C)c1cnn2c(NCc3ccc(NC(=O)CCCCCCNC(=O)COc4cccc5c4C(=O)N(C4CCC(=O)NC4=O)C5=O)cc3)nc(OC3CCN(C)CC3)nc12 (centres undefined) | 1.55
CC(C)c1cnn2c(NCc3cccc(NC(=O)CCCCCCNC(=O)COc4cccc5c4C(=O)N(C4CCC(=O)NC4=O)C5=O)c3)nc(OC3CCN(C)CC3)nc12 (centres undefined) | > 20
CC(C)c1cnn2c(NCc3ccc(NC(=O)CCCCCOc4cccc5c4C(=O)N(C4CCC(=O)NC4=O)C5=O)cc3)nc(OC3CCN(C)CC3)nc12 (centres undefined) | 0.95
CC(C)c1cnn2c(NCc3ccc(NC(=O)CCCCCCNc4cccc5c4C(=O)N(C4CCC(=O)NC4=O)C5=O)cc3)nc(OC3CCN(C)CC3)nc12 (centres undefined) | 0.53
CC(C)c1cnn2c(NCc3ccccc3N(C)C)nc(OC3CCN(C)CC3)nc12 | 11.9
CC(C)c1cnn2c(NCc3ccccc3-n3ccnc3)nc(OC3CCN(C)CC3)nc12 | 9.29
CC(C)c1cnn2c(NCc3ccccc3)nc(OC3CCN(CCOCCOCCNC(=O)COc4cccc5c4C(=O)N(C4CCC(=O)NC4=O)C5=O)CC3)nc12 (centres undefined) | > 20
CC(C)c1cnn2c(NCc3cc(NC(=O)CCCCCCNC(=O)COc4cccc5c4C(=O)N(C4CCC(=O)NC4=O)C5=O)ccc3N(C)C)nc(OC3CCN(C)CC3)nc12 (centres undefined) | > 20
CC(C)c1cnn2c(NCc3ccccc3N(C)C)nc(OC3CCN(CCOCCNC(=O)COc4cccc5c4C(=O)N(C4CCC(=O)NC4=O)C5=O)CC3)nc12 (centres undefined) | > 20
CC(C)c1cnn2c(NCc3ccc(NC(=O)CCCN4CCN(CCCCCc5cccc6c5CN(C5CCC(=O)NC5=O)C6=O)CC4)cc3)nc(OC3CCN(C)CC3)nc12 (centres undefined) | 0.46
CC(C)c1cnn2c(NCc3ccc(CCCCCCCOc4cccc5c4C(=O)N(C4CCC(=O)NC4=O)C5=O)cc3)nc(OC3CCN(C)CC3)nc12 (centres undefined) | 4.32

System: BT-549
Assay: Growth inhibition of human BT-549 cells assessed as cell viability measured after 4 days by WST8 assay
Format: functional, cell-based
Conditions: BT-549, 96 h

SMILES | IC50 [µM]
CC(C)c1cnn2c(NCc3ccc(CCCCCCNC(=O)COc4cccc5c4C(=O)N(C4CCC(=O)NC4=O)C5=O)cc3)cc(NCCCCCCN)nc12 (centres undefined) | 12.9
CC(C)c1cnn2c(NCc3ccc(NC(=O)CCCCCCNc4cccc5c4C(=O)N(C4CCC(=O)NC4=O)C5=O)cc3N(C)C)nc(OC3CCN(C)CC3)nc12 (centres undefined) | 2.66
CC(C)c1cnn2c(NCc3cc(CCCCCCNC(=O)COc4cccc5c4C(=O)N(C4CCC(=O)NC4=O)C5=O)ccc3N(C)C)nc(OC3CCN(C)CC3)nc12 (centres undefined) | 12.6
CC(C)c1cnn2c(NCc3ccccc3)nc(OC3CCN(CCOCCNC(=O)COc4cccc5c4C(=O)N(C4CCC(=O)NC4=O)C5=O)CC3)nc12 (centres undefined) | > 20
CC(C)c1cnn2c(NCc3ccc(CCCOCCOCCOc4cccc5c4C(=O)N(C4CCC(=O)NC4=O)C5=O)cc3)nc(OC3CCN(C)CC3)nc12 (centres undefined) | 1.57
CC(C)c1cnn2c(NCc3ccc(NC(=O)N4CCN(CCCCCc5cccc6c5CN(C5CCC(=O)NC5=O)C6=O)CC4)cc3)nc(OC3CCN(C)CC3)nc12 (centres undefined) | 0.074
CC(C)c1cnn2c(NCc3ccccc3)nc(OC3CCN(C)CC3)nc12 | 0.53
CC(C)c1cnn2c(NCc3ccc(NC(=O)CCCCCCNC(=O)COc4cccc5c4C(=O)N(C4CCC(=O)NC4=O)C5=O)cc3)nc(OC3CCN(C)CC3)nc12 (centres undefined) | 1.63
CC(C)c1cnn2c(NCc3cccc(NC(=O)CCCCCCNC(=O)COc4cccc5c4C(=O)N(C4CCC(=O)NC4=O)C5=O)c3)nc(OC3CCN(C)CC3)nc12 (centres undefined) | 12.8
CC(C)c1cnn2c(NCc3ccc(NC(=O)CCCCCOc4cccc5c4C(=O)N(C4CCC(=O)NC4=O)C5=O)cc3)nc(OC3CCN(C)CC3)nc12 (centres undefined) | 0.64
CC(C)c1cnn2c(NCc3ccc(NC(=O)CCCCCCNc4cccc5c4C(=O)N(C4CCC(=O)NC4=O)C5=O)cc3)nc(OC3CCN(C)CC3)nc12 (centres undefined) | 0.55
CC(C)c1cnn2c(NCc3ccccc3N(C)C)nc(OC3CCN(C)CC3)nc12 | 1.03
CC(C)c1cnn2c(NCc3ccccc3-n3ccnc3)nc(OC3CCN(C)CC3)nc12 | 2.26
CC(C)c1cnn2c(NCc3ccccc3)nc(OC3CCN(CCOCCOCCNC(=O)COc4cccc5c4C(=O)N(C4CCC(=O)NC4=O)C5=O)CC3)nc12 (centres undefined) | 9.88
CC(C)c1cnn2c(NCc3cc(NC(=O)CCCCCCNC(=O)COc4cccc5c4C(=O)N(C4CCC(=O)NC4=O)C5=O)ccc3N(C)C)nc(OC3CCN(C)CC3)nc12 (centres undefined) | > 20
CC(C)c1cnn2c(NCc3ccccc3N(C)C)nc(OC3CCN(CCOCCNC(=O)COc4cccc5c4C(=O)N(C4CCC(=O)NC4=O)C5=O)CC3)nc12 (centres undefined) | > 20
CC(C)c1cnn2c(NCc3ccc(NC(=O)CCCN4CCN(CCCCCc5cccc6c5CN(C5CCC(=O)NC5=O)C6=O)CC4)cc3)nc(OC3CCN(C)CC3)nc12 (centres undefined) | 0.19
CC(C)c1cnn2c(NCc3ccc(CCCCCCCOc4cccc5c4C(=O)N(C4CCC(=O)NC4=O)C5=O)cc3)nc(OC3CCN(C)CC3)nc12 (centres undefined) | 2.06
